According to ChEMBL document CHEMBL4354830, “Discovery of Benzo[cd]indol-2(1H)-ones and Pyrrolo[4,3,2-de]quinolin-2(1H)-ones as Bromodomain and Extra-Terminal Domain (BET) Inhibitors with Selectivity for the First Bromodomain with Potential High Efficiency against Acute Gouty Arthritis” (J Med Chem, 2019):

How the values were obtained:
[1] = biological target: T1, Bromodomain-containing protein 4 (Homo sapiens, UniProt O60885); assay: (§1) Displacement of tetra-acetylated histone H4 peptide (1-21) from recombinant human N-terminal His-tagged BRD4 BD1 (44 to 170 residues) expressed in Escherichia coli incubated for 30 mins followed by further incubation with tetra-acetylated histone H4 peptide (1-21) for 30 mins by Alphascreen assay
[2] = biological target: T1, Bromodomain-containing protein 4; assay: Displacement of tetra-acetylated histone H4 peptide (1-21) from recombinant human N-terminal His-tagged BRD4 BD2 (349 to 460 residues) expressed in Escherichia coli incubated for 30 mins followed by further incubation with tetra-acetylated histone H4 peptide (1-21) for 30 mins by Alphascreen assay
RAW264.7 = assay: Inhibition of LPS-induced NO overproduction in mouse RAW264.7 cells at 1 uM incubated for 2 hrs followed by LPS stimulation and measured after 22 hrs by Griess reagent based assay relative to control; format: functional; settings: for inhibition at 1 µM: Mus musculus, RAW264.7
[3] = biological target: T1, Bromodomain-containing protein 4; assay: Binding affinity to recombinant human N-terminal His-tagged BRD4 BD1 (44 to 170 residues) expressed in Escherichia coli assessed as change in melting temperature at 10 uM by SYPRO Orange based differential scanning fluorimetry
[4] = biological target: T1, Bromodomain-containing protein 4; assay: as §1, with “coli assessed as protein activity at 2 uM” for “coli”

SMILES | IC50 [1] | IC50 [2] | inhibition at 1 µM (RAW264.7) | ΔTm [3] | Activity [4] | inhibition (INH) (RAW264.7)
COc1ccccc1S(=O)(=O)Nc1ccc2c3c(cc(NCCN4CCCCC4)nc13)C(=O)N2C | 328 nM | 7070 nM | – | – | – | –
CCOC(=O)CC1CCN(c2cc3c4c(ccc(NS(=O)(=O)c5ccccc5OC)c4n2)N(C)C3=O)CC1 | 709 nM | – | – | – | – | –
COc1ccccc1S(=O)(=O)Nc1ccc2c3c(cc(-c4ccoc4)cc13)C(=O)N2C | 164 nM | – | – | – | – | –
CN1C(=O)c2cc(Cl)nc3c(NS(=O)(=O)c4ccc(Cl)cc4)ccc1c23 | 2600 nM | – | – | – | – | –
COc1ccccc1S(=O)(=O)Nc1ccc2c3c(cc(N4CCN(C)CC4)nc13)C(=O)N2C | 100 nM | 2120 nM | 92.5% | – | – | –
COc1ccccc1S(=O)(=O)Nc1ccc2c3c(cc(-c4cnn(C)c4)nc13)C(=O)N2C | 12.6 nM | 289 nM | – | – | – | –
COc1ccccc1S(=O)(=O)Nc1ccc2c3c(cc(-c4cnn(Cc5ccccc5)c4)cc13)C(=O)N2C | 205 nM | – | – | – | – | –
COc1cc(Cl)ccc1S(=O)(=O)Nc1ccc2c3c(cc(-c4cnn(C5CC5)c4)cc13)C(=O)N2C | 37.5 nM | 435 nM | – | – | – | –
CN1C(=O)c2cccc3c(NS(=O)(=O)c4c(F)cccc4F)ccc1c23 | 9070 nM | – | – | 3.73 °C | – | –
CN1C(=O)c2cccc3c(NS(=O)(=O)c4cccc5cccnc45)ccc1c23 | 329 nM | 260 nM | – | 4.13 °C | – | –
Cc1cc(/N=N/c2ccc(S(=O)(=O)Nc3ccc(C#N)cc3)cc2)cc(C)c1O | 328 nM | 7070 nM | 43.4% | – | – | –
COc1ccccc1S(=O)(=O)Nc1ccc2c3c(cc(-n4ccnc4)nc13)C(=O)N2C | 889 nM | 4110 nM | – | – | – | –
COc1ccccc1S(=O)(=O)Nc1ccc2c3c(cc(-c4ccco4)nc13)C(=O)N2C | 35.1 nM | 982 nM | 64.9% | – | – | –
COc1ccccc1S(=O)(=O)Nc1ccc2c3c(cc(N4CCOCC4)nc13)C(=O)N2C | 95.2 nM | 808 nM | 100% | – | – | –
COc1ccccc1S(=O)(=O)Nc1ccc2c3c(cc(NC4CC4)nc13)C(=O)N2C | 271 nM | 660 nM | – | – | – | –
Cc1ccccc1NS(=O)(=O)c1ccc2c3c(cccc13)C(=O)N2C | 15500 nM | – | – | 2.23 °C | – | –
COc1ccccc1S(=O)(=O)Nc1ccc2c3c(cccc13)C(=O)N2C | 49.5 nM | 2480 nM | 51.4% | 8.72 °C | – | –
CCN1C(=O)c2cccc3c(NS(=O)(=O)c4ccc(Cl)cc4)ccc1c23 | 237 nM | 2720 nM | – | 6.36 °C | – | –
CN1C(=O)c2cc(-c3cnn(C)c3)cc3c(NS(=O)(=O)c4ccc(Cl)cc4)ccc1c23 | 348 nM | – | – | – | – | –
COc1ccccc1S(=O)(=O)Nc1ccc2c3c(cc(NCCN4CCN(C)CC4)nc13)C(=O)N2C | 223 nM | 1520 nM | 39.6% | – | – | –

SMILES | IC50 [1] | IC50 [2] | inhibition at 1 µM (RAW264.7) | ΔTm [3] | Activity [4] | inhibition (INH) (RAW264.7)
O=C1Nc2ccc(NS(=O)(=O)c3ccc(Cl)cc3)c3cccc1c23 | 769 nM | 15500 nM | – | 3.73 °C | – | –
CN1C(=O)c2cccc3c(NS(=O)(=O)c4ccccc4Cl)ccc1c23 | 1530 nM | 6050 nM | – | 5.37 °C | – | –
COc1ccccc1S(=O)(=O)Nc1ccc2c3c(cc(-c4ccoc4)nc13)C(=O)N2C | 37 nM | 459 nM | 66.3% | – | – | –
Cc1ccccc1S(=O)(=O)Nc1ccc2c3c(cccc13)C(=O)N2C | 709 nM | – | – | 5.1 °C | – | –
CN1C(=O)c2cccc3c(NS(=O)(=O)c4ccccc4OC(F)(F)F)ccc1c23 | 3890 nM | – | – | 4.73 °C | – | –
COc1ccccc1S(=O)(=O)Nc1ccc2c3c(cc(N[C@H](C)c4ccccn4)nc13)C(=O)N2C | 2230 nM | – | – | – | – | –
CCCn1cc(-c2cc3c4c(ccc(NS(=O)(=O)c5ccc(Cl)cc5OC)c4c2)N(C)C3=O)cn1 | 107 nM | 320 nM | – | – | – | –
COc1ccccc1S(=O)(=O)Nc1ccc2c3c(cc(-c4cnn(C)c4)cc13)C(=O)N2C | 17.4 nM | 435 nM | 102% | – | – | –
CN1C(=O)c2cc(-c3ccoc3)cc3c(NS(=O)(=O)c4ccc(Cl)cc4)ccc1c23 | – | – | – | – | 56.6% | –
CN1C(=O)c2cc(-c3cnn(C4CC4)c3)cc3c(NS(=O)(=O)c4ccc(Cl)cc4)ccc1c23 | 666 nM | – | – | – | – | –
CN1CCN(c2cc3c4c(ccc(NS(=O)(=O)c5ccc(Cl)cc5)c4n2)N(C)C3=O)CC1 | 391 nM | – | – | – | – | –
COc1ccccc1S(=O)(=O)Nc1ccc2c3c(ccnc13)C(=O)N2C | 205 nM | 4600 nM | 94.3% | 7.64 °C | – | –
CCCn1cc(-c2cc3c4c(ccc(NS(=O)(=O)c5ccccc5OC)c4c2)N(C)C3=O)cn1 | 43.7 nM | 266 nM | 106% | – | – | –
COc1ccccc1S(=O)(=O)Nc1ccc2c3c(cc(Cl)nc13)C(=O)N2C | 656 nM | – | – | – | – | –
COc1ccccc1S(=O)(=O)Nc1ccc2c3c(cc(N4CCN(C(=O)OC(C)(C)C)CC4)nc13)C(=O)N2C | 334 nM | 2170 nM | – | – | – | –
CN1C(=O)c2cccc3c(NS(=O)(=O)c4c(Cl)cccc4Cl)ccc1c23 | – | – | – | 2.75 °C | 91.1% | –
CN1C(=O)c2cc(N3CCOCC3)nc3c(NS(=O)(=O)c4ccc(Cl)cc4)ccc1c23 | 217 nM | – | – | – | – | –
Cc1ccc(S(=O)(=O)Nc2ccc3c4c(cccc24)C(=O)N3C)cc1 | 545 nM | 2280 nM | – | 7.36 °C | – | –
CN1C(=O)c2cc(-c3cnn(C4CC4)c3)cc3c(NS(=O)(=O)c4ccc(Cl)cc4Cl)ccc1c23 | – | – | – | – | 61.8% | –
Cc1sc2c(c1C)C(c1ccc(Cl)cc1)=N[C@@H](CC(=O)OC(C)(C)C)c1nnc(C)n1-2 | – | – | – | – | – | 47.56%

SMILES | IC50 [1] | IC50 [2] | inhibition at 1 µM (RAW264.7) | ΔTm [3] | Activity [4] | inhibition (INH) (RAW264.7)
COc1ccccc1S(=O)(=O)N(C)c1ccc2c3c(cccc13)C(=O)N2C | – | – | – | 1.06 °C | 90.4% | –
COc1ccccc1S(=O)(=O)Nc1ccc2c3c(cc(-c4cnn(C5CC5)c4)cc13)C(=O)N2C | 14.4 nM | 238 nM | 83.7% | – | – | –
COc1ccccc1S(=O)(=O)Nc1ccc2c3c(cc(NCC4CCOCC4)nc13)C(=O)N2C | 503 nM | – | – | – | – | –
CN1C(=O)c2cccc3c(NS(=O)(=O)c4cccc(Cl)c4F)ccc1c23 | 1700 nM | – | – | 4.83 °C | – | –
CN1C(=O)c2cccc3c(NS(=O)(=O)c4cccnc4)ccc1c23 | 2440 nM | 13700 nM | – | 2.3 °C | – | –
CN1C(=O)c2cccc3c(NS(=O)(=O)c4ccc(Cl)cc4)ccc1c23 | 167 nM | 2720 nM | 15.1% | 6.5 °C | – | –
COc1ccccc1S(=O)(=O)Nc1ccc2c3c(cc(-c4cnn(C5CC5)c4)nc13)C(=O)N2C | 16.6 nM | 107 nM | – | – | – | –
Cc1cc(F)ccc1S(=O)(=O)Nc1ccc2c3c(cccc13)C(=O)N2C | 810 nM | – | – | 4.32 °C | – | –
CN1C(=O)c2cccc3c(NS(=O)(=O)c4ccc(F)cc4Cl)ccc1c23 | 91.3 nM | 3830 nM | 98.1% | 6.23 °C | – | –
CN1C(=O)c2cc(-c3cnn(C4CC4)c3)cc3c(NS(=O)(=O)c4ccc(Cl)cc4F)ccc1c23 | – | – | – | – | 65.2% | –
CN1C(=O)c2ccnc3c(NS(=O)(=O)c4ccc(Cl)cc4)ccc1c23 | 3470 nM | 20500 nM | – | 6.53 °C | – | –
COc1ccc(Cl)cc1S(=O)(=O)Nc1ccc2c3c(cc(-c4cnn(C5CC5)c4)cc13)C(=O)N2C | – | – | – | – | 64.9% | –
Cc1ccc(S(=O)(=O)Nc2ccc3c4c(ccnc24)C(=O)N3C)cc1 | 1570 nM | 6620 nM | – | 5.12 °C | – | –
COc1ccccc1S(=O)(=O)Nc1ccc2c3c(cc(NC(C)(C)C)nc13)C(=O)N2C | 573 nM | 2080 nM | – | – | – | –
COc1cc(Cl)ccc1S(=O)(=O)Nc1ccc2c3c(cccc13)C(=O)N2C | 299 nM | 3470 nM | – | 7.1 °C | – | –
COc1ccccc1S(=O)(=O)Nc1ccc2c3c(cc(N4CCC(CO)CC4)nc13)C(=O)N2C | 169 nM | 29600 nM | – | – | – | –
CN1C(=O)c2ccnc3c(NS(=O)(=O)c4ccc(Cl)cc4F)ccc1c23 | – | – | – | 2.31 °C | 87.4% | –
COc1ccccc1S(=O)(=O)Nc1ccc2c3c(cc(NCC4CCN(C)CC4)nc13)C(=O)N2C | 113 nM | 1280 nM | 47.2% | – | – | –
CN1C(=O)c2cccc3c(NS(=O)(=O)c4cccs4)ccc1c23 | 3720 nM | – | – | 4.02 °C | – | –
COc1cc(OC)c2c(=O)[nH]c(-c3cc(C)c(OCCO)c(C)c3)nc2c1 [APABETALONE] | – | – | 9.17% | – | – | –
